Laboratory results as given in patent US10051861B2, “N-arylamidine-substituted trifluoroethyl sulfide derivatives as acaricides and insecticides” (BAYER CROPSCIENCE AG, priority 2011, dated 2018).
Where two headings read alike, the source gives them in different places. Marks after values point to notes of the source that are not given here.

Tests used:
[1] = logP by HPLC on reversed-phase columns (C 18), EEC Directive 79/831 Annex V.A8; assay type: physicochemical
Procedure: Calibration is carried out using unbranched alkan-2-ones (having from 3 to 16 carbon atoms) with known log P values (the log P values are determined by the retention times using linear interpolation between two successive alkanones).

[2] = tested on: greenhouse red spider mite (Tetranychus urticae); test: Tetranychus urticae spray test, OP-resistant (TETRUR), bean leaf disks; assay type: in vivo; details: application rate 500 g/ha, after 6 days; for pest or weed control at 500 g/ha: Tetranychus urticae, foliar, 144 h, read-out: efficacy (spider mites killed)
Procedure: After 6 days, the effect in % is determined.

[3] = [a] LC-MS, acidic range, pH 2.7, 0.1% aqueous formic acid/acetonitrile
[4] = reversed-phase C18 HPLC column, pH 2.7, [a] LC-MS, acidic range, pH 2.7, 0.1% aqueous formic acid/acetonitrile, read-out: logP(HCOOH)
[5] = reversed-phase C18 HPLC column, pH 7.8, [b] LC-MS, neutral range, pH 7.8, 0.001 molar aqueous ammonium bicarbonate/acetonitrile, read-out: logP(neutral)
[6] = [a] LC-MS, acidic range, pH 2.7, 0.1% aqueous formic acid/acetonitrile, read-out: logP(HCOOH)
[7] = [b] LC-MS, neutral range, pH 7.8, 0.001 molar aqueous ammonium bicarbonate/acetonitrile, read-out: logP(neutral)

SMILES | chromatographic logP [1, 4] | chromatographic logP [1, 5] | also measured
Cc1cc(F)c(NC(=S)NCC(F)(F)F)cc1[S+]([O-])CC(F)(F)F (centres unmarked) | – | – | logP(HCOOH) [1, 3]: 2.34; logP(neutral) ([1]; [b] LC-MS, neutral range, pH 7.8, 0.001 molar aqueous ammonium bicarbonate/acetonitrile): 2.30
Cc1cc(C)c(SCC(F)(F)F)cc1N=C1NCCO1 [2,4-Dimethyl-N-[1,3-oxazolidin-2-ylidene]-5-[(2,2,2-trifluoroethyl)sulfanyl]aniline] | – | – | chromatographic logP ([1]; pH 2.7, logP(HCOOH)): 1.36
Cc1cc(F)c(N=C2NCCS2)cc1[S+]([O-])CC(F)(F)F (centres unmarked) [2-Fluoro-4-methyl-N-[1,3-thiazolidin-2-ylidene]-5-[(2,2,2-trifluoroethyl)sulfinyl]aniline] | 0.8 | – | –
Cc1cc(F)c(/N=C2\CCCN2c2ccccc2)cc1SCC(F)(F)F [2-Fluoro-4-methyl-N-[(2E)-1-phenylpyrrolidin-2-ylidene]-5-[(2,2,2-trifluoroethyl)sulfanyl]aniline] | 1.83 | 4.92 | –
Nc1cccc(SCC(F)(F)F)c1 [3-[(2,2,2-Trifluoroethyl)sulfanyl]aniline] | 2.01 | – | –
Cc1cc(F)c(SCC(F)(F)F)cc1NC(=O)C(F)(F)F [III-4, 2,2,2-Trifluoro-N-{4-fluoro-2-methyl-5-[(2,2,2-trifluoroethyl)sulfanyl]phenyl}acetamide] | 3.16 | 3.1 | –
O=C(Nc1cc(SCC(F)(F)F)c(Br)cc1Cl)C(F)(F)F [III-5, N-{4-Bromo-2-chloro-5-[(2,2,2-trifluoroethyl)sulfanyl]phenyl}-2,2,2-trifluoroacetamide] | 3.78 | – | –
O=C(Nc1cc(SCC(F)(F)F)c(Br)cc1Br)C(F)(F)F [III-6, N-{2,4-Dibromo-5-[(2,2,2-trifluoroethyl)sulfanyl]phenyl}-2,2,2-trifluoroacetamide] | 3.81 | – | –
O=C(Nc1cc(SCC(F)(F)F)c(F)cc1Cl)C(F)(F)F [III-7, N-{2-Chloro-4-fluoro-5-[(2,2,2-trifluoroethyl)sulfanyl]phenyl}-2,2,2-trifluoroacetamide] | 3.33 | 3.11 | –
O=C(Nc1cc(SCC(F)(F)F)c(Br)cc1Cl)C(F)(F)F [III-9, N-{4-Bromo-2-chloro-5-[(2,2,2-trifluoroethyl)sulfanyl]phenyl}-2,2,2-trifluoroacetamide] | – | 3.11 | logP(HCOOH) [1, 3]: 3.46
Cc1cc(F)c(SSc2cc(NC(=O)C(F)(F)F)c(C)cc2F)cc1NC(=O)C(F)(F)F [IV-2, N,N′-[Disulfanediylbis(4-fluoro-6-methylbenzene-3,1-diyl)]bis(2,2,2-trifluoroacetamide)] | 4 | 3.92 | –
O=C(Nc1cc(SSc2cc(NC(=O)C(F)(F)F)c(Cl)cc2Br)c(Br)cc1Cl)C(F)(F)F [IV-3, N,N′-[Disulfanediylbis(4-bromo-6-chlorobenzene-3,1-diyl)]bis(2,2,2-trifluoroacetamide)] | 5.42 | – | –
O=C(Nc1cc(SSc2cc(NC(=O)C(F)(F)F)c(Br)cc2Br)c(Br)cc1Br)C(F)(F)F [IV-4, N,N′-[Disulfanediylbis(4,6-dibromobenzene-3,1-diyl)]bis(2,2,2-trifluoroacetamide)] | 5.62 | 4.49 | –
O=C(Nc1cc(SSc2cc(NC(=O)C(F)(F)F)c(Cl)cc2F)c(F)cc1Cl)C(F)(F)F [IV-5, N,N′-[Disulfanediylbis(6-chloro-4-fluorobenzene-3,1-diyl)]bis(2,2,2-trifluoroacetamide)] | 4.45 | 3.81 | –
O=C(Nc1cc(SSc2cc(NC(=O)C(F)(F)F)c(F)cc2Br)c(Br)cc1F)C(F)(F)F [IV-7, N,N′-[Disulfanediylbis(4-bromo-6-fluorobenzene-3,1-diyl)]bis(2,2,2-trifluoroacetamide)] | 4.76 | 4.02 | –
Cc1cc(F)c(N=C(NS(C)(=O)=O)C(F)(F)F)cc1SCC(F)(F)F [Ia-11] | – | – | logP(HCOOH) ([1]; pH 2.7): 3.05^[a]; efficacy (spider mites killed) [2]: 100%
Cc1cc(F)c(SCC(F)(F)F)cc1N=C(N(C)C)C(F)(F)F [Ia-24] | – | – | logP(HCOOH) ([1]; pH 2.7): 4.53; logP(neutral) ([1]; pH 7.8): 4.47

SMILES | chromatographic logP [1, 4] | chromatographic logP [1, 5] | also measured
Cc1cc(F)c(/N=C(/NCC2CC2)C(F)(F)F)cc1SCC(F)(F)F [Ia-41] | 4.62 | – | pest or weed control at 500 g/ha [2]: 100%
Cc1cc(F)c(/N=C(/NCc2ccc(C(F)(F)F)cc2)C(F)(F)F)cc1SCC(F)(F)F [Ia-89] | 5.15 | 5.15 | pest or weed control at 500 g/ha [2]: 100%
Cc1cc(F)c(/N=C(/Nc2ccccc2)C(F)(F)F)cc1SCC(F)(F)F [Ia-96] | 4.37 | 4.37 | pest or weed control at 500 g/ha [2]: 100%
Cc1cc(F)c(/N=C(\N)c2cnccn2)cc1SCC(F)(F)F [Ia-117, N′-{2-Fluoro-4-methyl-5-[(2,2,2-trifluoroethyl)sulfanyl]phenyl}pyrazine-2-carboximidamide] | 1.24 | – | pest or weed control at 500 g/ha [2]: 90%
COc1ccc(N/C(=N/c2cc(SCC(F)(F)F)c(C)cc2F)C(F)(F)F)cc1 [Ia-129] | 4.2 | 4.2 | pest or weed control at 500 g/ha [2]: 100%
Cc1cc(F)c(N=C(N)c2ccccc2F)cc1SCC(F)(F)F [Ia-143] | 1.37 | 3.25 | –
Cc1cc(F)c(/N=C2\CCCN2c2ccccc2)cc1[S+]([O-])CC(F)(F)F (centres unmarked) [Ib-55, 2-Fluoro-4-methyl-N-[(2E)-1-phenylpyrrolidin-2-ylidene]-5-[(2,2,2-trifluoroethyl)sulfinyl]aniline] | 1.27 | 3.47 | –
COc1ccccc1/C(=N\c1cc([S+]([O-])CC(F)(F)F)c(C)cc1F)N(C)C (centres unmarked) [Ib-161] | 1.28 | 2.95 | –
COc1cc(C)c(SSc2cc(NC(C)=O)c(OC)cc2C)cc1NC(C)=O [N,N′-[Disulfanediylbis(6-methoxy-4-methylbenzene-3,1-diyl)]diacetamide] | 2.73 | – | –
Cc1cc(F)c(NC(=O)c2ccc(C(F)(F)F)cc2)cc1SCC(F)(F)F [N-{2-Fluoro-4-methyl-5-[(2,2,2-trifluoroethyl)sulfanyl]phenyl}-4-(trifluoromethyl)benzamide] | 4.2 | 4.17 | –
FC(F)(F)CSc1cc(N=C(Cl)C(F)(F)F)ccc1Cl [N-{4-Chloro-3-[(2,2,2-trifluoroethyl)sulfanyl]phenyl}-2,2,2-trifluoroethanimidoyl chloride] | 4.77 | 4.73 | –
Cc1cc(F)ccc1NC(=O)C(F)(F)F [VI-2, 2,2,2-Trifluoro-N-(4-fluoro-2-methylphenyl)acetamide] | 2.2 | 2.19 | –
O=C(Nc1ccc(Br)cc1Cl)C(F)(F)F [VI-3, N-(4-Bromo-2-chlorophenyl)-2,2,2-trifluoroacetamide] | – | – | chromatographic logP [1, 6]: 3.01; chromatographic logP [1, 7]: 2.81
O=C(Nc1ccc(Br)cc1Br)C(F)(F)F [VI-4, N-(2,4-Dibromophenyl)-2,2,2-trifluoroacetamide] | – | – | chromatographic logP [1, 6]: 3.1; chromatographic logP [1, 7]: 2.89
O=C(Nc1ccc(F)cc1Cl)C(F)(F)F [VI-5, N-(2-Chloro-4-fluorophenyl)-2,2,2-trifluoroacetamide] | – | – | chromatographic logP [1, 6]: 2.46; chromatographic logP [1, 7]: 2.31
O=C(Nc1ccc(Br)cc1F)C(F)(F)F [VI-7, N-(4-Bromo-2-fluorophenyl)-2,2,2-trifluoroacetamide] | – | – | chromatographic logP [1, 6]: 2.73; chromatographic logP [1, 7]: 2.51
